# Reference: PubChem BioAssay AID248 (DTP/NCI, 2004)
# Values joined by “and” are separate entries in the source; they are usually repeats but may differ in a detail not shown here. Equal entries are not always repeated. Inconclusive results and toxic doses are left out.
# Tested on: L1210 leukemia ip in BDF1 mice, survival T/C
# Assay: NCI In Vivo Anticancer Drug Screen. Data for tumor model L1210 Leukemia (intraperitoneal) in B6D2F1 (BDF1) mice
# Settings: endpoint: mean survival time, higher = longer survival
# Method in brief: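 In this screen, tumor-bearing mice given compound are compared to those given vehicle, and their survival values are reported as a treated-to-control quotient.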
# [1] = dose: 12.5 mg/kg/injection, schedule: Q04DX003 (ip), vehicle: saline
# [2] = dose: 100.0 mg/kg/injection, schedule: Q04DX003 (ip), vehicle: saline with Tween-80
# [3] = dose: 200.0 mg/kg/injection, schedule: Q04DX003 (ip), vehicle: saline with Tween-80
# [4] = dose: 400.0 mg/kg/injection, schedule: Q04DX003 (ip), vehicle: saline with Tween-80
# [5] = dose: 100.0 mg/kg/injection, schedule: Q04DX003 (ip), vehicle: Klucel (hydroxypropylcellulose) (HPC)
# [6] = dose: 200.0 mg/kg/injection, schedule: Q04DX003 (ip), vehicle: Klucel (hydroxypropylcellulose) (HPC)
# [7] = dose: 400.0 mg/kg/injection, schedule: Q04DX003 (ip), vehicle: Klucel (hydroxypropylcellulose) (HPC)
# [8] = dose: 50.0 mg/kg/injection, schedule: Q01DX009 (ip), vehicle: Klucel (hydroxypropylcellulose) (HPC)
# [9] = dose: 100.0 mg/kg/injection, schedule: Q01DX009 (ip), vehicle: Klucel (hydroxypropylcellulose) (HPC)
# [10] = dose: 200.0 mg/kg/injection, schedule: Q01DX009 (ip), vehicle: Klucel (hydroxypropylcellulose) (HPC)
# [11] = dose: 25.0 mg/kg/injection, schedule: Q01DX009 (ip), vehicle: Klucel (hydroxypropylcellulose) (HPC)
smiles,measurement,setting,value
O=C(Nc1cccc(F)c1)OCCOc1ccccc1,T/C,"dose: 100.0 mg/kg/injection, schedule: Q01DX009 (ip), vehicle: gum acacia",93 % of control
same,T/C,"dose: 200.0 mg/kg/injection, schedule: Q01DX009 (ip), vehicle: gum acacia",102 % of control
same,T/C,"dose: 400.0 mg/kg/injection, schedule: Q01DX009 (ip), vehicle: gum acacia",96 % of control
COC(=O)/C(=C\c1ccc([N+](=O)[O-])s1)C(C)=O,T/C,"dose: 6.25 mg/kg/injection, schedule: Q01DX005 (ip), vehicle: saline with Tween-80",92 % of control
same,T/C,"dose: 12.5 mg/kg/injection, schedule: Q01DX005 (ip), vehicle: saline with Tween-80",94 % of control
same,T/C,[1],94 % of control
same,T/C,"dose: 25.0 mg/kg/injection, schedule: Q04DX003 (ip), vehicle: saline",96 % of control
same,T/C,"dose: 50.0 mg/kg/injection, schedule: Q04DX003 (ip), vehicle: saline",86 % of control
CC[C@H](/C=C/[C@@H](C)[C@H]1CC[C@H]2[C@@H]3CC=C4C[C@@H](OC(=O)/C=C\C(=O)O)CC[C@]4(C)[C@H]3CC[C@]12C)C(C)C,T/C,"dose: 12.5 mg/kg/injection, schedule: Q01DX009 (ip), vehicle: water",96 % of control
same,T/C,"dose: 25.0 mg/kg/injection, schedule: Q01DX009 (ip), vehicle: water",86 % of control
same,T/C,"dose: 25.0 mg/kg/injection, schedule: Q04DX003 (ip), vehicle: other",105 % of control
same,T/C,"dose: 50.0 mg/kg/injection, schedule: Q04DX003 (ip), vehicle: other",92 % of control
CCCCOC(=O)c1ccc(OC(=O)Nc2cc(OC)ccc2OC)cc1,T/C,[2],95 % of control
same,T/C,[3],91 % of control
same,T/C,[4],90 % of control
Cc1ccc(Nc2cc(C)nc(N)n2)cc1,T/C,"dose: 25.0 mg/kg/injection, schedule: Q01DX Z (ip), vehicle: methylcellulose (MC)",90 % of control
CC1(C)N=C(c2ccccc2)C2C(c3ccc([N+](=O)[O-])cc3)N21 (stereo not drawn),T/C,"dose: 50.0 mg/kg/injection, schedule: Q01DX001 (ip), vehicle: carboxymethylcellulose (CMC)",98 % of control
same,T/C,"dose: 100.0 mg/kg/injection, schedule: Q01DX001 (ip), vehicle: carboxymethylcellulose (CMC)",88 % of control
same,T/C,"dose: 200.0 mg/kg/injection, schedule: Q01DX001 (ip), vehicle: carboxymethylcellulose (CMC)",93 % of control
same,T/C,"dose: 400.0 mg/kg/injection, schedule: Q01DX001 (ip), vehicle: carboxymethylcellulose (CMC)",91 % of control
NC(=S)c1cn(C2OC(CO)C(O)C2O)c2ncncc12 (stereo not drawn),T/C,"dose: 100.0 mg/kg/injection, schedule: Q01DX005 (ip), vehicle: saline",164 % of control
same,T/C,"dose: 200.0 mg/kg/injection, schedule: Q01DX005 (ip), vehicle: saline",167 % of control
CC(=O)C(C(C)=O)C1C=CCC1 (stereo not drawn),T/C,[2],96 % of control
same,T/C,[3],107 % of control
same,T/C,[4],89 % of control
Oc1ccc(C(c2ccc(O)cc2)(C(F)(F)F)C(F)(F)F)cc1,T/C,"dose: 100.0 mg/kg/injection, schedule: Q01DX009 (ip), vehicle: saline with Tween-80",105 % of control
same,T/C,"dose: 100.0 mg/kg/injection, schedule: Q04DX003 (ip), vehicle: alcohol",101 % of control
same,T/C,"dose: 200.0 mg/kg/injection, schedule: Q01DX009 (ip), vehicle: saline with Tween-80",97 % of control
same,T/C,"dose: 200.0 mg/kg/injection, schedule: Q04DX003 (ip), vehicle: alcohol",95 % of control
same,T/C,"dose: 400.0 mg/kg/injection, schedule: Q01DX009 (ip), vehicle: saline with Tween-80",109 % of control
same,T/C,"dose: 400.0 mg/kg/injection, schedule: Q04DX003 (ip), vehicle: alcohol",102 % of control
CCCC(C(=O)c1ccc(OC)cc1)C(O)(C(F)(F)F)C(F)(F)F (stereo not drawn),T/C,[5],91 % of control
same,T/C,[6],98 % of control
same,T/C,[7],100 % of control
COc1cc2ccc3c(c2cc1OC)C(=O)CNC3C (stereo not drawn),T/C,[1],100 % of control
same,T/C,"dose: 50.0 mg/kg/injection, schedule: Q04DX003 (ip), vehicle: Klucel (hydroxypropylcellulose) (HPC)",114 % of control
same,T/C,[5],98 % of control
same,T/C,[6],106 % of control
same,T/C,[7],101 % of control
COc1ccc(NC(=O)Nc2ccc(C3=NCCN3)cc2)cc1NC(=O)Nc1ccc(C2=NCCN2)cc1,T/C,"dose: 8.0 mg/kg/injection, schedule: Q01DX Z (ip), vehicle: carboxymethylcellulose (CMC)",107 % of control
same,T/C,"dose: 16.0 mg/kg/injection, schedule: Q01DX Z (ip), vehicle: carboxymethylcellulose (CMC)",102 % of control
same,T/C,"dose: 31.0 mg/kg/injection, schedule: Q01DX Z (ip), vehicle: carboxymethylcellulose (CMC)",100 % of control
same,T/C,"dose: 62.0 mg/kg/injection, schedule: Q01DX Z (ip), vehicle: carboxymethylcellulose (CMC)",104 % of control
same,T/C,"dose: 125.0 mg/kg/injection, schedule: Q01DX Z (ip), vehicle: carboxymethylcellulose (CMC)",102 % of control
CNC(=O)Oc1cccc(C=O)c1,T/C,"dose: 100.0 mg/kg/injection, schedule: Q01DX001 (ip), vehicle: other",102 % of control
same,T/C,"dose: 200.0 mg/kg/injection, schedule: Q01DX001 (ip), vehicle: other",117 % of control
same,T/C,"dose: 400.0 mg/kg/injection, schedule: Q01DX001 (ip), vehicle: other",102 % of control
N#C/C=C/C=C/C#N,T/C,"dose: 75.0 mg/kg/injection, schedule: Q01DX001 (ip), vehicle: other",98 % of control
same,T/C,"dose: 150.0 mg/kg/injection, schedule: Q01DX001 (ip), vehicle: other",103 % of control
CN(Nc1c([N+](=O)[O-])cc([N+](=O)[O-])cc1[N+](=O)[O-])c1cccc2ccccc12,T/C,[8],106 % of control
same,T/C,[9],97 % of control
same,T/C,[5],98 % of control
same,T/C,[10],97 % of control
same,T/C,[6],98 % of control
same,T/C,"dose: 400.0 mg/kg/injection, schedule: Q01DX009 (ip), vehicle: Klucel (hydroxypropylcellulose) (HPC)",102 % of control
same,T/C,[7],90 % of control
C(=NCC(CCN1CCOCC1)(CCN1CCOCC1)c1cccc2ccccc12)C(CCN1CCOCC1)(CCN1CCOCC1)c1cccc2ccccc12,T/C,"dose: 25.0 mg/kg/injection, schedule: Q04DX003 (ip), vehicle: saline with Tween-80",90 % of control
same,T/C,"dose: 50.0 mg/kg/injection, schedule: Q04DX003 (ip), vehicle: saline with Tween-80",100 % of control
same,T/C,[2],89 % of control
Nc1nc(N)nc(CCP(CCc2nc(N)nc(N)n2)CCc2nc(N)nc(N)n2)n1,T/C,[11],110 % of control
same,T/C,[8],108 % of control
same,T/C,[9],104 % of control
same,T/C,[5],110 % of control and 113 % of control
same,T/C,[6],98 % of control and 100 % of control
same,T/C,[7],101 % of control
CN(C(=O)N(CCCl)N=O)C1CCCCC1,T/C,"dose: 75.0 mg/kg/injection, schedule: Q01DX001 (ip), vehicle: saline",109 % of control
same,T/C,"dose: 150.0 mg/kg/injection, schedule: Q01DX001 (ip), vehicle: saline",93 % of control
O=C(Nc1cccc(-c2nc3ccccc3[nH]2)c1)c1ccc(C(=O)Nc2cccc(-c3nc4ccccc4[nH]3)c2)cc1,T/C,"dose: 15.0 mg/kg/injection, schedule: Q01DX Z (ip), vehicle: carboxymethylcellulose (CMC)",91 % of control
same,T/C,"dose: 30.0 mg/kg/injection, schedule: Q01DX Z (ip), vehicle: carboxymethylcellulose (CMC)",90 % of control
same,T/C,"dose: 60.0 mg/kg/injection, schedule: Q01DX Z (ip), vehicle: carboxymethylcellulose (CMC)",87 % of control
same,T/C,"dose: 120.0 mg/kg/injection, schedule: Q01DX Z (ip), vehicle: carboxymethylcellulose (CMC)",86 % of control
same,T/C,"dose: 125.0 mg/kg/injection, schedule: Q01DX Z (ip), vehicle: water",95 % of control
same,T/C,"dose: 250.0 mg/kg/injection, schedule: Q01DX Z (ip), vehicle: water",96 % of control
same,T/C,"dose: 500.0 mg/kg/injection, schedule: Q01DX Z (ip), vehicle: water",112 % of control
NC(=O)C(N)CSCc1ccccc1 (stereo not drawn),T/C,[8],95 % of control
same,T/C,[9],95 % of control
same,T/C,"dose: 100.0 mg/kg/injection, schedule: Q01DX009 (ip), vehicle: saline",89 % of control
same,T/C,[10],100 % of control
same,T/C,"dose: 200.0 mg/kg/injection, schedule: Q01DX009 (ip), vehicle: saline",91 % of control
same,T/C,"dose: 400.0 mg/kg/injection, schedule: Q01DX009 (ip), vehicle: saline",91 % of control
N#CCc1c(Cl)sc(Cl)c1CC#N,T/C,[2],88 % of control
same,T/C,[3],88 % of control
CN(C)N=Nc1c(O)ccc2c1CCC1C2CCC2(C)C(=O)CCC12 (stereo not drawn),T/C,"dose: 12.5 mg/kg/injection, schedule: Q01DX009 (ip), vehicle: Klucel (hydroxypropylcellulose) (HPC)",92 % of control
same,T/C,[11],94 % of control
same,T/C,[8],107 % of control
CCCc1nc2ccccc2c(=O)n1/N=C/c1ccc(OC)cc1,T/C,"dose: 100.0 mg/kg/injection, schedule: Q04DX002 (ip), vehicle: Klucel (hydroxypropylcellulose) (HPC)",96 % of control
same,T/C,"dose: 200.0 mg/kg/injection, schedule: Q04DX002 (ip), vehicle: Klucel (hydroxypropylcellulose) (HPC)",99 % of control
same,T/C,"dose: 400.0 mg/kg/injection, schedule: Q04DX002 (ip), vehicle: Klucel (hydroxypropylcellulose) (HPC)",101 % of control
